This experiment has as its target T1, MerTK (Homo sapiens, UniProt Q12866).
T1 construct: endogenous in cells; host or cells: Jurkat cells
T1 sequence (Q12866 21-999): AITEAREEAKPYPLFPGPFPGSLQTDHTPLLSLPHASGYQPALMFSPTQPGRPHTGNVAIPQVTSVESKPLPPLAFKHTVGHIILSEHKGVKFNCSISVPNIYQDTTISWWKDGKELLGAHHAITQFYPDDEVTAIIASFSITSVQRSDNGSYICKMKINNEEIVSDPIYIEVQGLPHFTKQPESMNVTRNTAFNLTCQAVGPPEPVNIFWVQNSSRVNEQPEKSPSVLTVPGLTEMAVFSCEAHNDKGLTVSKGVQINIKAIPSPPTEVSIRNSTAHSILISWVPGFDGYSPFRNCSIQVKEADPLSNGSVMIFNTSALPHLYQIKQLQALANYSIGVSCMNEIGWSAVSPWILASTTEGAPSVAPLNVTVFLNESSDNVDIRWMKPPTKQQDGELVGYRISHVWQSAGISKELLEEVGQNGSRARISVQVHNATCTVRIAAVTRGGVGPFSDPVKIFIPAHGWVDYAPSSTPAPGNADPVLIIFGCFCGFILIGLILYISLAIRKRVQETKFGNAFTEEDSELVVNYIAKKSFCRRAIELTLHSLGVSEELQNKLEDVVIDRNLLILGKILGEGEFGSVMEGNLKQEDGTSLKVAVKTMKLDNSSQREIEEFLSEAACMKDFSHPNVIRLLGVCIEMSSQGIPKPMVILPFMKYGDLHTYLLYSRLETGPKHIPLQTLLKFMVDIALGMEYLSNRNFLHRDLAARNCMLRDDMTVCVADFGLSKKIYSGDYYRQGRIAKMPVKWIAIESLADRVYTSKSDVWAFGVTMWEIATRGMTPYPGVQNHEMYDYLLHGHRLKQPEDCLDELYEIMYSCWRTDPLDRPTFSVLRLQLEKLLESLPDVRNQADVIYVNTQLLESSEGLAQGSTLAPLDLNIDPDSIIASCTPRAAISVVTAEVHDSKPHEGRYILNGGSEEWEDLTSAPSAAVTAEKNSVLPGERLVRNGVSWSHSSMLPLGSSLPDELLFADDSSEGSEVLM
Briefly: MerTk degradation in Jurkat cells (Western blot). Type of experiment: cell-based. To be noted: Jurkat, 4 h, 0.001-1 μM, 4 hour-incubation at 37° C., read-out: Jurkat Max % MerTK Degradation. A digest of the protocol:
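MerTK degradation was read by near-infrared Western blot, normalized to actin, in BCA-quantified lysates of Jurkat cells exposed to 0.001-1 μM compound for 4 h at 37 °C.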
A general note: Immunoblotting shows a protein as a band on a membrane.

Molecules are shown by their SMILES. Bounds are passed on as bounds.

`Cn1c(=O)n(C2CCC(=O)NC2=O)c2ccc(CCOCCN3CCCC(N4CCN(Cc5ccc(-c6cn([C@H]7CC[C@H](O)CC7)c7nc(NCCC(F)(F)F)ncc67)cc5)CC4)C3)cc21` (stereo partly drawn) [I-131, 3-(3-methyl-2-oxo-5-[2-[2-(3-[4-[(4-[7-[trans-4-hydroxycyclohexyl]-2-[(3,3,3-trifluoropropyl)amino]-7H-pyrrolo[2,3-d]pyrimidin-5-yl]phenyl)methyl]piperazin-1-y1]piperidin-1-yl)ethoxy]ethyl]-2,3-dihydro-1H-1,3-benzodiazol-1-y1)piperidine-2,6-dione; formic acid]: the Dmax is more than 50%. For `Cn1c(=O)n(C2CCC(=O)NC2=O)c2ccc(CN3CCN([C@H]4CCN(Cc5ccc(-c6cn([C@H]7CC[C@H](O)CC7)c7nc(NCCC(F)(F)F)ncc67)cc5)C4)CC3)cc21` (stereo partly drawn) [I-158, 3-[3-methyl-2-oxo-5-([4-[(3R)-1-[(4-[7-[trans-4-hydroxycyclohexy1]-2-[(3,3,3-trifluoropropyl)amino]pyrrolo[2,3-d]pyrimidin-5-y1]phenyl)methyl]pyrrolidin-3-y1]piperazin-1-yl]methyl)-1,3-benzodiazol-1-yl]piperidine-2,6-dione] the value was more than 50%; for `CCCCNc1ncc2c(C3=CCN(CCOCCOCCOCCOCCCc4ccc5c(c4)n(C)c(=O)n5[C@H]4CCC(=O)NC4=O)CC3)cn([C@H]3CC[C@H](O)CC3)c2n1` [I-96, 3-[5-(1-[4-[2-(butylamino)-7-[trans-4-hydroxycyclohexyl]-7H-pyrrolo[2,3-d]pyrimidin-5-y1]-1,2,3,6-tetrahydropyridin-1-y1]-3,6,9,12-tetraoxapentadecan-15-yl)-3-methyl-2-oxo-2,3-dihydro-1H-1,3-benzodiazol-1-yl]piperidine-2,6-dione; formic acid], more than 50%.

For `Cn1c(=O)n([C@H]2CCC(=O)NC2=O)c2ccc(CCCN3CC(C4CCN(Cc5ccc(-c6cn([C@H]7CC[C@H](O)CC7)c7nc(NCCC(F)(F)F)ncc67)cc5)CC4)C3)cc21` [I-136, 3-[3-methyl-2-oxo-5-[3-(3-[1-[(4-[7-[trans-4-hydroxycyclohexyl]-2-[(3,3,3-trifluoropropyl)amino]pyrrolo[2,3-d]pyrimidin-5-yl]phenyl)methyl]piperidin-4-yl]azetidin-1-yl)propyl]-1,3-benzodiazol-1-y1]piperidine-2,6-dione; tris(formic acid)], the Dmax was more than 50%. Consider `CCCCNc1ncc2c(-c3ccc(CNCCCC(=O)N(C)CCOCCCc4ccc5c(c4)n(C)c(=O)n5[C@H]4CCC(=O)NC4=O)cc3)cn([C@H]3CC[C@H](O)CC3)c2n1` [I-67, 4-[([4-[2-(butylamino)-7-[trans-4-hydroxycyclohexy1]-7H-pyrrolo[2,3-d]pyrimidin-5-yl]phenyl]methyl)amino]-N-(2-[3-[1-(2,6-dioxopiperidin-3-y1)-3-methyl-2-oxo-2,3-dihydro-1H-1,3-benzodiazol-5-yl]propoxy]ethyl)-N-methylbutanamide; formic acid], for which the Dmax is more than 50%. Then `CCCCNc1ncc2c(n1)n([C@H]1CC[C@H](O)CC1)cc2[C@H]1CC[C@@H](CN2CCN(CCOCCOCCOCCOCCCc3ccc4c(c3)n(C)c(=O)n4[C@H]3CCC(=O)NC3=O)CC2)CC1` [I-89, 3-[3-methyl-2-oxo-5-[1-(4-[[(1s,4s)-4-[2-(butylamino)-7-[trans-4-hydroxycyclohexy1]-7H-pyrrolo[2,3-d]pyrimidin-5-yl]cyclohexyl]methyl]piperazin-1-yl)-3,6,9,12-tetraoxapentadecan-15-yl]-2,3-dihydro-1H-1,3-benzodiazol-1-yl]piperidine-2,6-dione; di(formic acid)], with more than 50%; and `Cn1c(=O)n([C@H]2CCC(=O)NC2=O)c2ccc(CCCOCCN3CCC(N4CCN(Cc5ccc(-c6cn([C@H]7CC[C@H](O)CC7)c7nc(NCCC(F)(F)F)ncc67)cc5)CC4)CC3)cc21` [I-94, 3-(3-methyl-2-oxo-5-[3-[2-(4-[4-[(4-[7-[trans-4-hydroxycyclohexyl]-2-[(3,3,3-trifluoropropyl)amino]-7H-pyrrolo[2,3-d]pyrimidin-5-yl]phenyl)methyl]piperazin-1-yl]piperidin-1-yl)ethoxy]propyl]-2,3-dihydro-1H-1,3-benzodiazol-1-y1)piperidine-2,6-dione; formic acid], with more than 50%. For the molecule `CCC[C@H](C)Nc1ncc2c(-c3ccc(CN4CCN(C5CC(OCCc6ccc7c(c6)n(C)c(=O)n7C6CCC(=O)NC6=O)C5)CC4)cc3)cn([C@H]3CC[C@](C)(O)CC3)c2n1` (stereo partly drawn) [I-188, 3-[3-methyl-2-oxo-5-[2-(3-[4-[(4-[2-[(2S)-pentan-2-ylamino]-7-[trans-4-hydroxy-4-methylcyclohexyl]pyrrolo[2,3-d]pyrimidin-5-yl]phenyl)methyl]piperazin-1-yl]cyclobutoxy)ethyl]-1,3-benzodiazol-1-yl]piperidine-2,6-dione; formic acid], the Dmax is more than 50%. As to `CCCCNc1ncc2c(-c3ccc(CNCCOCCCc4ccc5c(c4)n(C)c(=O)n5[C@H]4CCC(=O)NC4=O)cc3)cn([C@H]3CC[C@H](O)CC3)c2n1` [I-54, 3-[5-(3-[2-[([4-[2-(butylamino)-7-[trans-4-hydroxycyclohexyl]-7H-pyrrolo[2,3-d]pyrimidin-5-yl]phenyl]methyl)amino]ethoxy]propyl)-3-methyl-2-oxo-2,3-dihydro-1H-1,3-benzodiazol-1-yl]piperidine-2,6-dione], the Dmax lay within 20 to 50%.

For the molecule `Cn1c(=O)n([C@H]2CCC(=O)NC2=O)c2ccc(CCCOCCCN3CCN(Cc4ccc(-c5cn([C@H]6CC[C@@](C)(O)CC6)c6nc(NCCC(F)(F)F)ncc56)cc4)CC3)cc21` [I-141, 3-[3-methyl-2-oxo-5-[3-(3-[4-[(4-[7-[cis-4-hydroxy-4-methylcyclohexyl]-2-[(3,3,3-trifluoropropyl)amino]pyrrolo[2,3-d]pyrimidin-5-y1]phenyl)methyl]piperazin-1-yl]propoxy)propyl]-1,3-benzodiazol-1-yl]piperidine-2,6-dione], the Dmax is more than 50%. Then `Cn1c(=O)n([C@H]2CCC(=O)NC2=O)c2ccc(CCCOCCCOCCN3CCN(Cc4ccc(-c5cn([C@H]6CC[C@H](O)CC6)c6nc(NCCC(F)(F)F)ncc56)cc4)CC3)cc21` [I-78, 3-(3-methyl-2-oxo-5-[3-[3-(2-[4-[(4-[7-[trans-4-hydroxycyclohexyl]-2-[(3,3,3-trifluoropropyl)amino]-7H-pyrrolo[2,3-d]pyrimidin-5-yl]phenyl)methyl]piperazin-1-yl]ethoxy)propoxy]propy1]-2,3-dihydro-1H-1,3-benzodiazol-1-yl)piperidine-2,6-dione; formic acid], with more than 50%. Take `C[C@H](Nc1ncc2c(-c3ccc(CN4CCN(CCCCOCCCc5ccc6c(c5)n(C)c(=O)n6C5CCC(=O)NC5=O)CC4)cc3)cn([C@H]3CC[C@H](O)CC3)c2n1)C(F)F` (stereo partly drawn) [I-185]: the Dmax was more than 50%.

Turning to `Cn1c(=O)n([C@H]2CCC(=O)NC2=O)c2ccc(CCCOCCOCCOCCN3CCN(Cc4ccc(-c5nn([C@H]6CC[C@H](O)CC6)c6nc(NCCC(F)(F)F)ncc56)cc4)CC3)cc21` [I-63, 3-[3-methyl-2-oxo-5-(3-[2-[2-(2-[4-[(4-[1-[trans-4-hydroxycyclohexyl]-6-[(3,3,3-trifluoropropyl)amino]-1H-pyrazolo[3,4-d]pyrimidin-3-yl]phenyl)methyl]piperazin-1-yl]ethoxy)ethoxy]ethoxy]propyl)-2,3-dihydro-1H-1,3-benzodiazol-1-yl]piperidine-2,6-dione; formic acid], the Dmax was more than 50%. Consider `Cn1c(=O)n([C@H]2CCC(=O)NC2=O)c2ccc(CCOCCN3CCN(Cc4cccc(-c5cn([C@H]6CC[C@H](O)CC6)c6nc(NCCC(F)(F)F)ncc56)c4)CC3)cc21` [I-146, 3-[3-methyl-2-oxo-5-[2-(2-[4-[(3-[7-[trans-4-hydroxycyclohexy1]-2-[(3,3,3-trifluoropropyl)amino]pyrrolo[2,3-d]pyrimidin-5-yl]phenyl)methyl]piperazin-1-yl]ethoxy)ethyl]-1,3-benzodiazol-1-yl]piperidine-2,6-dione], for which the Dmax was more than 50%.

Turning to `CCCCNc1ncc2c(-c3ccc(S(=O)(=O)N4CCN(CCOCCOCCOCCOCC(=O)N[C@H](C(=O)N5C[C@H](O)C[C@H]5C(=O)NCc5ccc(-c6scnc6C)cc5)C(C)(C)C)CC4)cc3)nn([C@H]3CC[C@H](O)CC3)c2n1` [I-33, (2S,4R)-1-((S)-2-(tert-butyl)-17-(4-((4-(6-(butylamino)-1-(trans-4-hydroxycyclohexyl)-1H-pyrazolo[3,4-d]pyrimidin-3-yl)phenyl)sulfonyl)piperazin-1-yl)-4-oxo-6,9,12,15-tetraoxa-3-azaheptadecanoyl)-4-hydroxy-N-(4-(4-methylthiazol-5-yl)benzyl)pyrrolidine-2-carboxamide], the Dmax was more than 50%.

These data come from patent publication US20260042762A1 (Kymera Therapeutics, Inc., priority 2018, published 2026).
